This is an account of results in article PMC3288109, “γ-Aminobutyric Acid Transporter 2 Mediates the Hepatic Uptake of Guanidinoacetate, the Creatine Biosynthetic Precursor, in Rats” (PLoS ONE, 2012).

The test system of data set [1] is T1, freshly isolated rat hepatocytes.
T1 construct: Wistar primary hepatocytes, collagenase perfusion
As to the kind of experiment: cells. Also noted: species or system primary rat hepatocytes; Inhibition of [14C]GAA (18 uM) uptake by freshly isolated rat hepatocytes, 37 C, scintillation counting. The following applies: Hepatocyte, 0.05 h, [14C]GAA 18 uM, 3 min, 37 C, read-out: % of control remaining. An excerpt:
Rat hepatocytes were isolated by collagenase perfusion and Percoll isodensity centrifugation as described previously. The hepatocytes were resuspended in Tyrode buffer containing (in mM) 137 NaCl, 2.7 KCl, 1.05 MgCl2, 1.8 CaCl2, 12 NaHCO3, 0.4 NaH2PO4, and 5.6 D-glucose. Uptake of [^14C]GAA or [^14C]creatine by the freshly isolated hepatocytes was examined according to the methods described previously. In brief, after centrifugation and aspiration of the buffer, uptake was initiated by applying 100 µL Tyrode buffer containing [^14C]GAA or [^14C]creatine at 37°C in the presence or absence of inhibitors. Na^+-free Tyrode buffer was prepared by replacement of NaCl, NaH2PO4 and NaHCO3 with equimolar N-methyl-D-glucamine, KH2PO4, and KHCO3, respectively. Cl^−-free uptake buffer was prepared by replacement with equimolar gluconate. After a predetermined period, uptake was terminated by centrifugation of the solution. The cells were then solubilized in 1 N NaOH and subsequently neutralized with 1 N HCl. The cell-associated radioactivity and protein content were assayed by [compound left out] scintillation spectrometry and detergent compatible protein assay (a DC protein assay kit, Bio-Rad, Hercules, CA) with bovine serum albumin as a standard. […] In contrast, there was no time-dependent increase in [^14C]creatine uptake by hepatocytes (Figure 2A). […] The [^14C]GAA uptake took place in a concentration-dependent manner and consisted of a single saturable component (Figure 2B). […] In contrast, creatinine, betaine, guanidinosuccinic acid, L-arginine, L-alanine, and L-serine had much weaker effects. GABA, taurine, and creatine inhibited the [^14C]GAA uptake in a concentration-dependent manner with an IC50 value of 8.81±1.33 µM, 1.13±0.30 mM, and 1.42±0.53 mM, respectively (Figure 2C–E). […] Among the GAT subtypes, GAT2 is predominantly expressed in rat liver. […] [^14C]GAA uptake was reduced by 46.4% in GAT2-silenced hepatocytes corresponding to the reduction in GAT2 protein (Figure 2F).

Data set [2] has as its target T2, GAT2 (γ-aminobutyric acid transporter 2, SLC6A13) (Rattus norvegicus, UniProt P31646).
T2 sequence (P31646 1-602): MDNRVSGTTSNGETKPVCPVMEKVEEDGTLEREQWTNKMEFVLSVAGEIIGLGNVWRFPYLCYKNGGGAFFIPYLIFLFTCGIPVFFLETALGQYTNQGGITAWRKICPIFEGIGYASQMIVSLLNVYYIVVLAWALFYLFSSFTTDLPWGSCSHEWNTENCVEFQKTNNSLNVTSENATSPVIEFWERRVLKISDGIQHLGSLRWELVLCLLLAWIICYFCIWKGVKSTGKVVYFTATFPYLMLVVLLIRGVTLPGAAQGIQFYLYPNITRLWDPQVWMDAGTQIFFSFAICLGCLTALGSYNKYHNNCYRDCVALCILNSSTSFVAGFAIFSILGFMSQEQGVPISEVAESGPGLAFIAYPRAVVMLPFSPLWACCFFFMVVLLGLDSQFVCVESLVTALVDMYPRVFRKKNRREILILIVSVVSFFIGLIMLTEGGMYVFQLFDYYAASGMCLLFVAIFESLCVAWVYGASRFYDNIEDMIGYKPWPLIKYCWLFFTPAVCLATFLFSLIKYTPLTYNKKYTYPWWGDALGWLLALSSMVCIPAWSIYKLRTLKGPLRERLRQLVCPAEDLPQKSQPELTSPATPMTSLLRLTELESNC
Kind of data set: cell-based. Also noted: rat GAT2 open reading frame cRNA expressed in Xenopus laevis oocytes; species or system Xenopus laevis oocytes; Inhibition of [14C]GAA (45 uM) uptake by rat GAT2 cRNA-injected oocytes, 20 C, scintillation counting. The following applies: Oocyte; [14C]GAA 45 uM, 1 h, 20 C; read-out: % of control / 100±7. As for the experimental part:
Using T7 RNA polymerase, capped cRNA was transcribed from NotI-linearized pGEM-HEN containing an open reading frame of rat GAT2 cDNA. Defolliculated oocytes were injected with 23 nL water or the capped cRNA (30–50 ng) and incubated at 18°C in freshly prepared standard oocyte saline solution containing 100 mM NaCl, 2 mM KCl, 1.8 mM CaCl2, 1 mM MgCl2, and 5 mM HEPES, 25 µg/mL gentamycin, 2.5 mM pyruvate and 1% bovine serum albumin, pH 7.5. The standard oocyte saline solution used to incubate the oocytes was replaced with fresh solution daily. Experiments were performed after incubation for 4 to 6 days. For the uptake study by Xenopus laevis oocytes, oocytes were preincubated with 500 µL ND96 solution containing (in mM) 96 NaCl, 2 KCl, 1.8 CaCl2, 1 MgCl2, and 5 HEPES for 20 min at 20°C before the uptake experiment. The uptake experiment was initiated by replacing the ND96 solution with 200 µL of the same solution containing [^14C]GAA (45 µM) […] [^14C]creatine (45 µM). After incubation for a designated time at 20°C, the uptake was terminated by addition of ice-cold ND96 solution. […] The inhibitory effects of GAT substrates and inhibitors on the [^14C]GAA uptake were further examined (Figure 3B and Table 3).

In data set [3] the target is T2, GAT2 (γ-aminobutyric acid transporter 2, SLC6A13). The data set is classed as cell-based. The following applies: xenopus oocytes.
Substrate in data set [4]: N=C(N)NCC(=O)O
Kind of data set: cells, lysate or membranes. The data set is classed as cell-based, Rattus norvegicus. The following applies: Na+ and Cl-.

`N=C(N)NCCS(=O)(=O)O` [Guanidinoethansulfonic acid]: the activity at 2000 µM in data set [1] is 33 ± 4.4%. Also, the remaining activity at 5000 µM in data set [2] was 11 ± 1.2%.
As to `N=C(N)NCCC[C@H](N)C(=O)O` [L-Arginine], in data set [1], the activity at 2000 µM was 74.9 ± 11.1%. In data set [2], the remaining activity at 5000 µM worked out at 137 ± 15%.
For the molecule `NCCCC(=O)O` [GABA], the activity at 2000 µM in data set [1] was determined as 17.1 ± 1.6%. In data set [2], the remaining activity at 5000 µM stood at 1.74 ± 0.44%.
The like results for `[H]/N=C(\N)NCCC(=O)O` [β-Guanidinopropionic acid] were, in that order, 18.9 ± 0.9% and 0.81 ± 0.07%.
For `CN(CC(=O)O)C(=N)N` [Creatine], the remaining activity at 5000 µM in data set [2] was found to be 57.3 ± 8.3%. In data set [3], the “[14C]creatine uptake by GAT2-expressing oocytes; also 57.3% of control [14C]GAA” value is listed as 28 fold over water-injected oocytes.
`NCC(=O)O` [Glycine]: the activity at 2000 µM in data set [1] came out at 54.4 ± 11.2%.
On the same count and under the same terms, to `NCCC(=O)O` [β-Alanine] belongs 28.5 ± 5.5%.
Still for that read-out and setting: with `N[C@@H](CO)C(=O)O` [L-Serine] the figure was 83.8 ± 6.4%.
With `NCCS(=O)(=O)O` [Taurine], the remaining activity at 5000 µM in data set [2] was 16.6 ± 4.4%.
With `C[N+](C)(C)CC(=O)O` [Betaine], the activity at 2000 µM in data set [1] is 64.4 ± 8.7%. Besides, the remaining activity at 5000 µM in data set [2] amounted to 96.7 ± 7.4%.
`N=C(N)NCCCC(=O)O` [γ-Guanidinobutyric acid]: in data set [2], the remaining activity at 5000 µM stood at 2.35 ± 0.23%.
`CN1CC(=O)NC1=N` [Creatinine]: the activity at 2000 µM in data set [1] was found to be 75.3 ± 8.9%. Moreover, in data set [2], the remaining activity at 5000 µM was determined as 147 ± 18%.
Regarding `[H]/N=C(/N)NCC(=O)O` [Guanidinoacetic acid], the activity at 2000 µM in data set [1] was found to be 24.1 ± 1.1%.
For `O=C(O)C1CCCNC1` (stereo not drawn) [Nipecotic acid], in data set [1], the activity at 2000 µM came to 30.8 ± 1.2%. Moreover, the remaining activity at 5000 µM in data set [2] was determined as 11.9 ± 1.5%.
The like results for `NC(N)=N[C@@H](CC(=O)O)C(=O)O` [Guanidinosuccinic acid] were, in that order, 71.2 ± 5.1% and 148 ± 11%.
On the same counts, the results for `C[C@H](N)C(=O)O` [L-Alanine] are 59.6 ± 7.8% and 138 ± 18%.

B1: GAT2 (γ-aminobutyric acid transporter 2, SLC6A13) (Rattus norvegicus) (protein)
chain: MDNRVSGTTSNGETKPVCPVMEKVEEDGTLEREQWTNKMEFVLSVAGEIIGLGNVWRFPYLCYKNGGGAFFIPYLIFLFTCGIPVFFLETALGQYTNQGGITAWRKICPIFEGIGYASQMIVSLLNVYYIVVLAWALFYLFSSFTTDLPWGSCSHEWNTENCVEFQKTNNSLNVTSENATSPVIEFWERRVLKISDGIQHLGSLRWELVLCLLLAWIICYFCIWKGVKSTGKVVYFTATFPYLMLVVLLIRGVTLPGAAQGIQFYLYPNITRLWDPQVWMDAGTQIFFSFAICLGCLTALGSYNKYHNNCYRDCVALCILNSSTSFVAGFAIFSILGFMSQEQGVPISEVAESGPGLAFIAYPRAVVMLPFSPLWACCFFFMVVLLGLDSQFVCVESLVTALVDMYPRVFRKKNRREILILIVSVVSFFIGLIMLTEGGMYVFQLFDYYAASGMCLLFVAIFESLCVAWVYGASRFYDNIEDMIGYKPWPLIKYCWLFFTPAVCLATFLFSLIKYTPLTYNKKYTYPWWGDALGWLLALSSMVCIPAWSIYKLRTLKGPLRERLRQLVCPAEDLPQKSQPELTSPATPMTSLLRLTELESNC
notes: rat GAT2 open reading frame cRNA expressed in Xenopus laevis oocytes
What is called Km is the concentration of substrate that gives half-maximal velocity. Regarding B1, in data set [4], the Km is listed as 78.9 µM.
